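Five compound concentrations were applied to cells in 96-well plates for 48 hours; endpoints were derived by simple linear interpolation of the resulting dose-response curve. GI50 marks 50% less growth. TGI: concentration producing complete growth inhibition.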
Legend:
Test in all cases: NCI tumour cell line growth inhibition, 48 h
NCI-H460 lung = tested on: NCI-H460 lung
OVCAR-4 ovarian = tested on: OVCAR-4 ovarian
EKVX NSCLC = tested on: EKVX NSCLC
786-0 renal = tested on: 786-0 renal
MOLT-4 leukemia = tested on: MOLT-4 leukemia
M14 melanoma = tested on: M14 melanoma
SK-OV-3 ovarian = tested on: SK-OV-3 ovarian
LOX IMVI melanoma = tested on: LOX IMVI melanoma
CAKI-1 renal = tested on: CAKI-1 renal
T-47D breast = tested on: T-47D breast
SNB-19 CNS = tested on: SNB-19 CNS
HCC-2998 colon = tested on: HCC-2998 colon
UACC-257 melanoma = tested on: UACC-257 melanoma
IGROV1 ovarian = tested on: IGROV1 ovarian
UACC-62 melanoma = tested on: UACC-62 melanoma
HT29 colon = tested on: HT29 colon
ACHN renal = tested on: ACHN renal
BT-549 breast = tested on: BT-549 breast
HS 578T breast = tested on: HS 578T breast
A498 renal = tested on: A498 renal
UO-31 renal = tested on: UO-31 renal
HCT-15 colon = tested on: HCT-15 colon
SR leukemia = tested on: SR leukemia
K-562 leukemia = tested on: K-562 leukemia
NCI/ADR-RES ovarian = tested on: NCI/ADR-RES ovarian
HOP-62 NSCLC = tested on: HOP-62 NSCLC
COLO 205 colon = tested on: COLO 205 colon
PC-3 prostate = tested on: PC-3 prostate
OVCAR-8 ovarian = tested on: OVCAR-8 ovarian
SF-539 CNS = tested on: SF-539 CNS
SW-620 colon = tested on: SW-620 colon
HCT-116 colon = tested on: HCT-116 colon
MDA-MB-435 = tested on: MDA-MB-435
SF-268 CNS = tested on: SF-268 CNS
HL-60(TB) leukemia = tested on: HL-60(TB) leukemia
MDA-MB-231 breast = tested on: MDA-MB-231 breast
SF-295 CNS = tested on: SF-295 CNS
DU-145 prostate = tested on: DU-145 prostate
TK-10 renal = tested on: TK-10 renal
NCI-H23 lung = tested on: NCI-H23 lung
KM12 colon = tested on: KM12 colon
SNB-75 CNS = tested on: SNB-75 CNS
RXF 393 renal = tested on: RXF 393 renal
MCF7 breast = tested on: MCF7 breast
RPMI-8226 leukemia = tested on: RPMI-8226 leukemia
SK-MEL-28 melanoma = tested on: SK-MEL-28 melanoma
U251 CNS = tested on: U251 CNS
HOP-92 NSCLC = tested on: HOP-92 NSCLC
SK-MEL-5 melanoma = tested on: SK-MEL-5 melanoma
SK-MEL-2 melanoma = tested on: SK-MEL-2 melanoma
CCRF-CEM leukemia = tested on: CCRF-CEM leukemia
NCI-H226 lung = tested on: NCI-H226 lung
OVCAR-3 ovarian = tested on: OVCAR-3 ovarian
SN12C renal = tested on: SN12C renal
MALME-3M melanoma = tested on: MALME-3M melanoma
A549 NSCLC = tested on: A549 NSCLC
OVCAR-5 ovarian = tested on: OVCAR-5 ovarian

Compound `OC(c1ccccc1)C(F)(F)c1nc2ccccc2o1` (stereo unspecified) has a TGI (NCI-H460 lung) greater than 100 µM, a TGI (OVCAR-4 ovarian) greater than 100 µM and a TGI (EKVX NSCLC) greater than 100 µM. For the same compound, the TGI (786-0 renal) was greater than 100 µM, the TGI (MOLT-4 leukemia) was greater than 100 µM and the TGI (M14 melanoma) was greater than 100 µM. For the same compound, the TGI (SK-OV-3 ovarian) was greater than 100 µM, the TGI (LOX IMVI melanoma) was greater than 100 µM and the TGI (CAKI-1 renal) was greater than 100 µM. The TGI (T-47D breast) was greater than 100 µM, the TGI (SNB-19 CNS) was greater than 100 µM and the TGI (HCC-2998 colon) was greater than 100 µM. It also gave a TGI (UACC-257 melanoma) greater than 100 µM, a TGI (IGROV1 ovarian) greater than 100 µM and a TGI (UACC-62 melanoma) greater than 100 µM. It also gave a TGI (HT29 colon) greater than 100 µM, a TGI (ACHN renal) greater than 100 µM and a TGI (BT-549 breast) greater than 100 µM. It also gave a TGI (HS 578T breast) greater than 100 µM, a TGI (A498 renal) greater than 100 µM and a TGI (UO-31 renal) greater than 100 µM. The TGI (HCT-15 colon) was greater than 100 µM, the TGI (SR leukemia) was greater than 100 µM and the TGI (K-562 leukemia) was 75.3 µM. For the same compound, the TGI (NCI/ADR-RES ovarian) was greater than 100 µM, the TGI (HOP-62 NSCLC) was greater than 100 µM and the TGI (COLO 205 colon) was greater than 100 µM. The TGI (PC-3 prostate) was greater than 100 µM, the TGI (OVCAR-8 ovarian) was greater than 100 µM and the TGI (SF-539 CNS) was greater than 100 µM. For the same compound, the TGI (SW-620 colon) was greater than 100 µM, the TGI (HCT-116 colon) was greater than 100 µM and the TGI (MDA-MB-435) was greater than 100 µM. For the same compound, the TGI (SF-268 CNS) was greater than 100 µM, the TGI (HL-60(TB) leukemia) was greater than 100 µM and the TGI (MDA-MB-231 breast) was greater than 100 µM. For the same compound, the TGI (SF-295 CNS) was greater than 100 µM, the TGI (DU-145 prostate) was greater than 100 µM and the TGI (TK-10 renal) was greater than 100 µM. For the same compound, the TGI (NCI-H23 lung) was greater than 100 µM, the TGI (KM12 colon) was greater than 100 µM and the TGI (SNB-75 CNS) was greater than 100 µM. For the same compound, the TGI (RXF 393 renal) was greater than 100 µM, the TGI (MCF7 breast) was greater than 100 µM and the TGI (RPMI-8226 leukemia) was greater than 100 µM. It also gave a TGI (SK-MEL-28 melanoma) greater than 100 µM, a TGI (U251 CNS) greater than 100 µM and a TGI (HOP-92 NSCLC) greater than 100 µM. For the same compound, the TGI (SK-MEL-5 melanoma) was greater than 100 µM, the TGI (SK-MEL-2 melanoma) was greater than 100 µM and the TGI (CCRF-CEM leukemia) was greater than 100 µM. It also gave a TGI (NCI-H226 lung) greater than 100 µM.
`O=C(Nc1ccc2c(c1)OCO2)C(=O)c1c[nH]c2cc(F)ccc12` showed a GI50 (NCI-H460 lung) of 3.26 µM, a TGI (NCI-H460 lung) greater than 100 µM and a GI50 (OVCAR-4 ovarian) of 1.9 µM. For the same compound, the TGI (OVCAR-4 ovarian) was greater than 100 µM, the GI50 (EKVX NSCLC) was 13.3 µM and the TGI (EKVX NSCLC) was greater than 100 µM. It also gave a GI50 (786-0 renal) of 4.39 µM, a TGI (786-0 renal) of 23 µM and a GI50 (MOLT-4 leukemia) of 11.7 µM. The TGI (MOLT-4 leukemia) was 69.2 µM, the GI50 (M14 melanoma) was 0.466 µM and the TGI (M14 melanoma) was 10.9 µM. For the same compound, the GI50 (SK-OV-3 ovarian) was 4.24 µM, the TGI (SK-OV-3 ovarian) was 15.2 µM and the GI50 (LOX IMVI melanoma) was 0.476 µM. The TGI (LOX IMVI melanoma) was greater than 100 µM, the GI50 (CAKI-1 renal) was 0.677 µM and the TGI (CAKI-1 renal) was greater than 100 µM. The GI50 (T-47D breast) was 1.75 µM, the TGI (T-47D breast) was greater than 100 µM and the GI50 (SNB-19 CNS) was 7.74 µM. For the same compound, the TGI (SNB-19 CNS) was 77.3 µM, the GI50 (HCC-2998 colon) was 0.688 µM and the TGI (HCC-2998 colon) was greater than 100 µM. The GI50 (UACC-257 melanoma) was 1.7 µM, the TGI (UACC-257 melanoma) was 15.5 µM and the GI50 (IGROV1 ovarian) was 12.6 µM. It also gave a TGI (IGROV1 ovarian) greater than 100 µM, a GI50 (UACC-62 melanoma) of 0.238 µM and a TGI (UACC-62 melanoma) of 1.58 µM. For the same compound, the GI50 (HT29 colon) was 8.04 µM, the TGI (HT29 colon) was greater than 100 µM and the GI50 (ACHN renal) was 0.547 µM. The TGI (ACHN renal) was 20.4 µM, the GI50 (BT-549 breast) was 9.35 µM and the TGI (BT-549 breast) was 98.7 µM. The GI50 (HS 578T breast) was 2.63 µM, the TGI (HS 578T breast) was 62.7 µM and the GI50 (A498 renal) was 2.72 µM. For the same compound, the TGI (A498 renal) was 16.7 µM, the GI50 (UO-31 renal) was 4.42 µM and the TGI (UO-31 renal) was 44.9 µM. For the same compound, the GI50 (HCT-15 colon) was 0.67 µM, the TGI (HCT-15 colon) was greater than 100 µM and the GI50 (OVCAR-3 ovarian) was 4.67 µM. It also gave a TGI (OVCAR-3 ovarian) of 19 µM, a GI50 (SR leukemia) of 2.85 µM and a TGI (SR leukemia) of 19.6 µM. It also gave a GI50 (K-562 leukemia) of 0.6 µM, a TGI (K-562 leukemia) of 20.8 µM and a GI50 (NCI/ADR-RES ovarian) of 1.47 µM. It also gave a TGI (NCI/ADR-RES ovarian) of 22.9 µM, a GI50 (HOP-62 NSCLC) of 5.11 µM and a TGI (HOP-62 NSCLC) of 21.9 µM. For the same compound, the GI50 (SN12C renal) was 38.3 µM, the TGI (SN12C renal) was greater than 100 µM and the GI50 (COLO 205 colon) was 13.5 µM. For the same compound, the TGI (COLO 205 colon) was greater than 100 µM, the GI50 (PC-3 prostate) was 3.33 µM and the TGI (PC-3 prostate) was greater than 100 µM. For the same compound, the GI50 (OVCAR-8 ovarian) was 3.89 µM, the TGI (OVCAR-8 ovarian) was 23.6 µM and the GI50 (SF-539 CNS) was 3.23 µM. For the same compound, the TGI (SF-539 CNS) was 36.3 µM, the GI50 (SW-620 colon) was 2.07 µM and the TGI (SW-620 colon) was greater than 100 µM. It also gave a GI50 (HCT-116 colon) of 11.2 µM, a TGI (HCT-116 colon) greater than 100 µM and a GI50 (MDA-MB-435) of 0.854 µM. For the same compound, the TGI (MDA-MB-435) was greater than 100 µM, the GI50 (SF-268 CNS) was 4.52 µM and the TGI (SF-268 CNS) was 22.1 µM. The GI50 (HL-60(TB) leukemia) was 4.51 µM, the TGI (HL-60(TB) leukemia) was greater than 100 µM and the GI50 (MDA-MB-231 breast) was 2.12 µM. It also gave a TGI (MDA-MB-231 breast) of 25.4 µM, a GI50 (SF-295 CNS) of 2.19 µM and a TGI (SF-295 CNS) of 21.5 µM. The GI50 (DU-145 prostate) was 3.52 µM, the TGI (DU-145 prostate) was 44.6 µM and the GI50 (MALME-3M melanoma) was 3 µM. The TGI (MALME-3M melanoma) was 8.61 µM, the GI50 (TK-10 renal) was 7.04 µM and the TGI (TK-10 renal) was 25.4 µM. The GI50 (NCI-H23 lung) was 13.9 µM, the TGI (NCI-H23 lung) was 55.4 µM and the GI50 (KM12 colon) was 0.389 µM. It also gave a TGI (KM12 colon) of 13.7 µM, a GI50 (SNB-75 CNS) of 2.6 µM and a TGI (SNB-75 CNS) of 12.1 µM. It also gave a GI50 (RXF 393 renal) of 3.65 µM, a TGI (RXF 393 renal) of 11 µM and a GI50 (MCF7 breast) of 6.91 µM. It also gave a TGI (MCF7 breast) greater than 100 µM, a GI50 (RPMI-8226 leukemia) of 50 µM and a TGI (RPMI-8226 leukemia) greater than 100 µM. For the same compound, the GI50 (SK-MEL-28 melanoma) was 2.05 µM, the TGI (SK-MEL-28 melanoma) was 5.54 µM and the GI50 (U251 CNS) was 9.17 µM. The TGI (U251 CNS) was 51.7 µM, the GI50 (HOP-92 NSCLC) was 1.12 µM and the TGI (HOP-92 NSCLC) was 5.6 µM. It also gave a GI50 (SK-MEL-5 melanoma) of 0.726 µM, a TGI (SK-MEL-5 melanoma) of 10.6 µM and a GI50 (SK-MEL-2 melanoma) of 5.19 µM. For the same compound, the TGI (SK-MEL-2 melanoma) was 31.1 µM, the GI50 (CCRF-CEM leukemia) was 5.33 µM and the TGI (CCRF-CEM leukemia) was greater than 100 µM. It also gave a GI50 (A549 NSCLC) of 2.81 µM, a TGI (A549 NSCLC) greater than 100 µM and a GI50 (OVCAR-5 ovarian) of 17.9 µM. The TGI (OVCAR-5 ovarian) was greater than 100 µM, the GI50 (NCI-H226 lung) was 3.74 µM and the TGI (NCI-H226 lung) was 16.8 µM.

— PubChem BioAssay (NCI)
